Converted amounts (≈) assume the structure as drawn.
What was measured:
[1] = tested on: Escherichia coli; assay: Binding affinity to Escherichia coli 16S rRNA A-site model at Ec2AP1493 position assessed as shorter rotational correlation time by time resolved fluorescence anisotropy
[2] = tested on: Escherichia coli; assay: Antibacterial activity against Escherichia coli DH5-alpha after 24 hrs by broth dilution assay; type: functional; conditions: DH5alpha
[3] = tested on: Escherichia coli; assay: Antitranslation activity in Escherichia coli extract rRNA S30 assessed as inhibition of luciferase expression by transcription-translation assay; type: functional
[4] = tested on: Escherichia coli; assay: Binding affinity to Escherichia coli 16S rRNA A-site model at Ec2AP1492 position assessed as two rotational correlation time by time resolved fluorescence anisotropy
[5] = tested on: Escherichia coli; assay: Binding affinity to Escherichia coli 16S rRNA A-site model at Ec2AP1493 position assessed as two rotational correlation time by time resolved fluorescence anisotropy
[6] = tested on: Escherichia coli; assay: Binding affinity to Escherichia coli 16S rRNA A-site model at Ec2AP1492 position assessed as shorter rotational correlation time by time resolved fluorescence anisotropy

SMILES | Activity [1] [nanoseconds] | MIC [2] [µg/mL] | IC50 [3] [nM] | Activity [4] [nanoseconds] | Activity [5] [nanoseconds] | Activity [6] [nanoseconds]
NC[C@@H]1O[C@H](O[C@@H]2[C@@H](O)[C@@H]3OC4[C@@H](O)[C@H](N)C[C@H](N)[C@H]4O[C@H]4O[C@H](CN)[C@@H](O)[C@H](O)[C@H]4NC[C@H]2O3)[C@H](N)[C@@H](O)[C@@H]1O (some centres not stated) | 0.65 | 119 (≈ 199 µM) | 1100 | 4.38 | 3.95 | 0.76
NC[C@@H]1O[C@H](O[C@@H]2[C@@H](O)[C@H](O[C@@H]3[C@@H](O)[C@H](N)C[C@H](N)[C@@H]3O[C@H]3O[C@H](CN)[C@@H](O)[C@H](O)[C@H]3N)O[C@@H]2CO)[C@H](N)[C@@H](O)[C@@H]1O | 1.96 | 1.9 (≈ 3.09 µM) | 50 | 7.32 | 5.32 | 2.35

Reference: ChEMBL document CHEMBL1145509, “Defining the molecular forces that determine the impact of neomycin on bacterial protein synthesis: importance of the 2'-amino functionality” (Antimicrob Agents Chemother, 2007)
